# Experimental data: US12097192B2 (Corcept Therapeutics Incorporated, priority 2019, dated 2024)
# Entries after “also recorded” stand apart in the source; their conditions may differ.
# Assays:
# [1] = tested on: other nuclear steroid hormone receptors; assay: Binding to other nuclear steroid hormone receptors
# progesterone receptor = target: T1, progesterone receptor (Homo sapiens, UniProt P06401); assay: Progesterone receptor affinity / binding
# T1 sequence (P06401 1-933): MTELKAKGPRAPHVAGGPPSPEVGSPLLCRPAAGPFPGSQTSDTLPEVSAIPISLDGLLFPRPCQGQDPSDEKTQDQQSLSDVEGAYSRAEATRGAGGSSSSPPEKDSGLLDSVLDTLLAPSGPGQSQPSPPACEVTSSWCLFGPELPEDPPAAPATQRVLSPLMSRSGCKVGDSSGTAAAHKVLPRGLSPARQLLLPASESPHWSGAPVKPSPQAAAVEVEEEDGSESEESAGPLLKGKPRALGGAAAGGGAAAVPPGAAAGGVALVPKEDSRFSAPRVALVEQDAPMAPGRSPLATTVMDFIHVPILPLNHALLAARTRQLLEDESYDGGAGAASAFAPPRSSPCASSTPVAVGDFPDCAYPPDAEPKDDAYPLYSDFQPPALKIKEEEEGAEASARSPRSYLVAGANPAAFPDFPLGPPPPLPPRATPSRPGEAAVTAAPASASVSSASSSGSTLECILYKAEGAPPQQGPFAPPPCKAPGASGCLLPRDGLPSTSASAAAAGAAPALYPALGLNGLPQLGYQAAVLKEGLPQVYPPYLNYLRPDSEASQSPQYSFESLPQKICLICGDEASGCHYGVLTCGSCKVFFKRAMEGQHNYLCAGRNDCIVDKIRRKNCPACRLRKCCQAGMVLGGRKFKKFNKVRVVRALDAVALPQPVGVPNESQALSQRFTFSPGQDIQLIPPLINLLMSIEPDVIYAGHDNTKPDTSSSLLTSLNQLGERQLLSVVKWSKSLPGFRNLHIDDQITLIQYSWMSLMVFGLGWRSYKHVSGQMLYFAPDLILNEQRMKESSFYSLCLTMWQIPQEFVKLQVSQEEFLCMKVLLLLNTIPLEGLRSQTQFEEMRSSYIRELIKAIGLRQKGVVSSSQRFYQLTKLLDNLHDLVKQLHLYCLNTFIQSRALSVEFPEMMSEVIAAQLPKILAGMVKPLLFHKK
# [2] = tested on: Cushing's syndrome patients; assay: Cushing's syndrome patient study: safety and adverse events; type: in vivo, human
# Excerpt: All patients gave informed consent before participating in any study-related procedures.
# The safety protocol also included assessments by physical examination findings, vital signs, ECG results, pregnancy tests, clinical laboratory test results (hematology and chemistry panels), adverse events (AEs), and concomitant medications.
# [3] = Relacorilant in healthy subjects (human volunteers): tolerability and steady state; type: in vivo
# [4] = tested on: Cushing's syndrome patients; assay: Cushing's syndrome patient study: POMC/proACTH and HPA axis; type: in vivo, human; conditions: for POMC and proACTH mean change from Baseline to Last Observed: All Subjects
# Excerpt: (§1) All patients gave informed consent before participating in any study-related procedures. […] The study protocol called for patient visits to the study site at screening, on Day 1 (baseline), Weeks 2, 4, 6, 8, 10, and 12, and after a 4-week follow-up period for Group 1. For Group 2, the protocol called for patient visits to the study site at screening, on Day 1 (baseline), Weeks 2, 4, 6, 8, 10, 12, 14, and 16, and after a 4-week follow-up period. Patient dosing will be done at home, except on days of study visits. […] It ignores noncompliance, protocol deviations, withdrawal, and anything that happens after randomization. In contrast, per-protocol (PP) analysis refers to inclusion in the analysis of only those patients who strictly adhered to the protocol. The PP analysis provides an estimate of the true efficacy of an intervention, i.e., among those who completed the treatment as planned.
# [5] = tested on: Cushing's syndrome patients; assay: Cushing's syndrome patient study: glucose control / hyperglycemia response; type: in vivo, human; conditions: for Fructosamine, IGT mean change from Baseline to Last Observed / HOMA-IR, IGT mean change from Baseline to Last Observed / AUCglucose mean change from Baseline to Last Observed / AUCinsulin mean change from Baseline to Last Observed: All Subjects
# Excerpt: as §1, with “visits. Response criteria for hyperglycemia were changes from baseline in glucose tolerance as measured by: ≥0.5% decrease in HbA1c, normalization or ≥50 mg/dL decrease in 2-hr OGTT glucose, or decrease in total daily insulin (≥25%) or sulfonylurea dose (≥50%). Response criteria for hypertension (HTN) was a ≥5 mm Hg decrease in mean systolic and/or diastolic blood pressure (SBP/DBP).” for “visits.”
# [6] = mITT, Group 2 (250-400 mg/day, 16 weeks)
# [7] = mPP, Group 2 (250-400 mg/day, 16 weeks)
# [8] = mITT, Group 1 (100-200 mg/day, 12 weeks)
# [9] = mPP, Group 1 (100-200 mg/day, 12 weeks)
smiles,measurement,setting,value
"Cn1cc(S(=O)(=O)N2CCC3=Cc4c(cnn4-c4ccc(F)cc4)C[C@]3(C(=O)c3cc(C(F)(F)F)ccn3)C2)cn1 [relacorilant, (R)-(1-(4-fluorophenyl)-6-((1-methyl-1H-pyrazol-4-yl)sulfonyl)-4,4a,5,6,7,8-hexahydro-1H-pyrazolo[3,4-g]isoquinolin-4a-yl) (4-(trifluoromethyl)pyridin-2-yl)methanone]",binding to other nuclear steroid hormone receptors,[1],does not bind
same,binding to the progesterone receptor,progesterone receptor,lack of binding to the progesterone receptor
same,progesterone receptor affinity,progesterone receptor; evidence from Cushing's syndrome patient study,no evidence of relacorilant having any progesterone receptor affinity
same,adverse effects of progesterone receptor antagonism,[2]; Cushing's syndrome patients,no adverse effects of progesterone receptor antagonism
same,drug induced hypokalemia,[2]; Cushing's syndrome patients,none of the patients suffered hypokalemia; also recorded: without any episodes of drug induced hypokalemia; also recorded: no patients developed drug induced hypokalemia; also recorded: no reported instances
same,drug induced vaginal bleeding,[2]; Cushing's syndrome patients,No drug-induced hypokalemia or vaginal bleeding; also recorded: no cases of drug induced vaginal bleeding; also recorded: no reported instances
same,drug-related serious adverse events,[2]; Cushing's syndrome patients,no drug-related serious adverse events
same,most common treatment-emergent adverse events (TEAEs),[2]; Cushing's syndrome patients,"back pain, edema, headache, and nausea"
same,tolerability,"[2]; Cushing's syndrome patients, up to 400 mg/day",generally well tolerated
same,serious TEAEs,[2]; all from the HD group,Five serious TEAEs were reported in 4 patients
same,endometrial hypertrophy developed on previous mifepristone,"[2]; one patient previously treated with mifepristone, during treatment with relacorilant",completely resolved
same,safety profile compared with mifepristone,[2]; patients with endogenous Cushing syndrome,significantly better
same,tolerability of 14 days of dosing,"[3]; human subjects, 14 days at 50 mg, 150 mg and 250 mg",well-tolerated
same,achievement of steady state levels,"[3]; human volunteers, daily dosing",≤ 7 days
same,tolerability of single doses,"[3]; human, in vivo",well-tolerated
same,platelet count,"[3]; some healthy subjects, non-dose-dependent, resolved by study end",transient reduction in platelet count
same,adverse events at 500 mg,[3]; some subjects who received 500-mg relacorilant,(non-serious) musculoskeletal adverse events
same,adverse events with repeat doses,"[3]; some subjects, repeat doses up to 250 mg",mild to moderate musculoskeletal AEs
same,POMC and proACTH mean change from Baseline to Last Observed,[4]; [6],7.91 pmol/L
same,POMC and proACTH mean change from Baseline to Last Observed,"[4]; mITT, Overall",7.91 pmol/L
same,POMC and proACTH mean change from Baseline to Last Observed,[4]; [7],7.91 pmol/L
same,POMC and proACTH mean change from Baseline to Last Observed,"[4]; mPP, Overall",7.91 pmol/L
same,restoration of the suppressed HPA axis,[4]; patients with adrenal Cushing syndrome,half of the cases
same,"Fructosamine, IGT mean change from Baseline to Last Observed",[5]; [8],-6.85 µmol/L
same,"HOMA-IR, IGT mean change from Baseline to Last Observed",[5]; [8],0.05
same,"Fructosamine, IGT mean change from Baseline to Last Observed",[5]; [6],-21.58 µmol/L
same,"HOMA-IR, IGT mean change from Baseline to Last Observed",[5]; [6],−3.2
same,"Fructosamine, IGT mean change from Baseline to Last Observed","[5]; mITT, Overall",-13.92 µmol/L
same,"HOMA-IR, IGT mean change from Baseline to Last Observed","[5]; mITT, Overall",−1.58
same,"Fructosamine, IGT mean change from Baseline to Last Observed",[5]; [9],-8.08 µmol/L
same,"HOMA-IR, IGT mean change from Baseline to Last Observed",[5]; [9],0.39
same,"Fructosamine, IGT mean change from Baseline to Last Observed",[5]; [7],-18.92 µmol/L
same,"HOMA-IR, IGT mean change from Baseline to Last Observed",[5]; [7],−3.28
same,"Fructosamine, IGT mean change from Baseline to Last Observed","[5]; mPP, Overall",-13.28 µmol/L
same,"HOMA-IR, IGT mean change from Baseline to Last Observed","[5]; mPP, Overall",−1.37
same,AUCglucose mean change from Baseline to Last Observed,[5]; [8],-3.11 mmol·h/L
same,AUCinsulin mean change from Baseline to Last Observed,[5]; [8],−33.28 hr * μU/mL
same,AUCglucose mean change from Baseline to Last Observed,[5]; [6],-0.8 mmol·h/L
same,AUCinsulin mean change from Baseline to Last Observed,[5]; [6],−32.26 hr * μU/mL
same,AUCglucose mean change from Baseline to Last Observed,"[5]; mITT, Overall",-1.96 mmol·h/L
same,AUCinsulin mean change from Baseline to Last Observed,"[5]; mITT, Overall",−32.77 hr * μU/mL
same,AUCglucose mean change from Baseline to Last Observed,[5]; [9],-3.63 mmol·h/L
same,AUCinsulin mean change from Baseline to Last Observed,[5]; [9],−38.79 hr * μU/mL
same,AUCglucose mean change from Baseline to Last Observed,[5]; [7],-1.24 mmol·h/L
same,AUCinsulin mean change from Baseline to Last Observed,[5]; [7],−37.39 hr * μU/mL
same,AUCglucose mean change from Baseline to Last Observed,"[5]; mPP, Overall",-2.48 mmol·h/L
same,AUCinsulin mean change from Baseline to Last Observed,"[5]; mPP, Overall",−38.12 hr * μU/mL
same,AUCglucose in patients with hyperglycemia,[5]; Cushing's syndrome patients,statistically significant reduction
same,hyperglycemia response rate,"[5]; HD group (doses up to 400 mg), week 16",50%
same,hyperglycemia response rate,"[5]; LD group (doses up to 200 mg), week 12",15.4%
same,patients with hyperglycaemia showing glycaemic improvement (responders/patients),[5]; doses up to 400 mg,6/12
